Values joined by “and” are separate entries in the source; they are usually repeats but may differ in a detail not shown here. Identical values can stand only once.

The assay relates to P. falciparum 3D7 growth, pLDH absorbance. The assay can be described thus: blood-stage malaria parasite growth potency – strain 3D7, dose response (AID 2305).
By IC50 is commonly meant the concentration that gives 50% inhibition. Lower therefore signals greater potency. `CC(C)(C)c1cc(C(=O)Nc2ccc(C(=N)N)cc2)c(O)c(C(C)(C)C)c1` yielded a half-maximal inhibitory concentration (IC50) of 760 nM. Turning to `O=S(=O)(Nc1ccc(CCN2CCC(N3CCCCC3)CC2)cc1)c1ccc(Cl)cc1`, the half-maximal inhibitory concentration (IC50) was found to be 1090 nM. `CC1(C)N=C(N)N=C(N)N1OCc1ccc2ccccc2c1CON1C(N)=NC(N)=NC1(C)C` yielded an IC50 of 660 nM. Turning to `COc1ccc2nccc([C@@H](O)CN3CCC(NC(=O)[C@@H]4Cc5ccccc5CN4C(=O)OC(C)(C)C)CC3)c2c1`, the IC50 was 890 nM.

Turning to `O=C(NC1CC1)c1cnc(N2CCN(Cc3c(F)cccc3Cl)CC2)c(Cl)c1`, the IC50 came to 910 nM. Take `CCOC(=O)c1cn(CC)c2cc(O[C@@H]3CCN(C(=O)OC(C)(C)C)C3)ccc2c1=O`: the IC50 turned out to be 290 nM. Compound `NC(N)=NN=Cc1c[nH]c2ccc(-c3ccccc3)cc12` displayed an IC50 of 530 nM.

Consider `CCC(CC)(Cc1ccccc1)NC(=O)[C@H](CC1CCCCC1)Nc1ccc(C#N)c2ccccc12`, for which the 50% inhibitory concentration (IC50) worked out at 630 nM. For `CN1CCCc2ccc(NC(=O)Nc3ccc(Cl)c(Cl)c3)cc2C1`, the IC50 was determined as 600 nM. In turn, `CCN(CCCN1CCCCC1)c1cc(C)nc(Nc2ccc(Oc3ccccc3)cc2)n1` gave an IC50 of 300 nM. Regarding `CC(C)(C)c1nn(-c2ccccc2)c2[nH]c(=O)c(CNCc3ccccc3)cc12`, the IC50 came out at 1050 nM. `Cc1cccc2[nH]c(-c3ccc(-c4ccc(NC(=O)C(C)CN(C)C)cc4)cc3)nc12` (centres undefined): the IC50 turned out to be 680 nM.

Turning to `Cc1cc(-c2cccc(CNCCc3ccc(Cl)cc3)c2)cnc1N`, the IC50 was found to be 1100 nM. `O=C(Nc1ccccc1)NC1CCN(CCC2(c3ccc(Cl)c(Cl)c3)COCN(C(=O)c3ccccc3)C2)C1` (centres undefined): the IC50 was 880 nM.

`Cc1nc2c(s1)c(=O)cc(CCc1cccc(F)c1F)n2CC(=O)N(Cc1ccc(-c2ccc(C(F)(F)F)cc2)cc1)C1CCN(C(C)C)CC1` yielded an IC50 of 770 nM. `CN(c1ccccc1C(=O)Nc1cc(Cl)ccc1Oc1ccccc1)S(=O)(=O)c1ccccc1`: the IC50 was 740 nM. `O=C(Nc1cccc(CN2CCN(C(=O)c3cccc(Cl)c3)CC2)c1)c1cccs1` yielded an IC50 of 180 nM. In the case of `Fc1ccc(CNc2ncc(-c3ccsc3)c(-c3nccs3)n2)cc1`, the IC50 was 70 nM. The compound `Cc1ccc(NC(=O)c2ccc(CN3CCCN(CCC(C)C)CC3)cc2)cc1C` gave an IC50 of 910 nM. In turn, `CN(C)CCCOc1ccc(CN2CC[C@H](NC(=O)c3ccc(Cl)c(Cl)c3)C2)cc1Cl` had a half-maximal inhibitory concentration (IC50) of 960 nM. Consider `C=CCN1C(=O)c2[nH]nc(-c3cc(C)c(C)cc3O)c2C1c1cccc(Br)c1` (centres undefined), for which the IC50 was 1160 nM. Take `O=C(Nc1ccc(C(F)(F)F)cc1)c1cccc(S(=O)(=O)NC2CCN(Cc3ccccc3)C2)c1` (centres undefined): the IC50 came to 1050 nM. Consider `Cc1[nH]c(C)c(-c2ccc(Oc3ccc(OC(F)(F)F)cc3)cc2)c(=O)c1Br`, for which the IC50 was 560 nM and 110 nM.

In turn, `Cc1cc(N[C@@H](CC(C)C)C(=O)Nc2ccccc2)nc(NCCc2ccccc2)n1` came in with an IC50 of 890 nM. Turning to `FC(F)(F)c1cccc(NC(=S)NN=Cc2ccccn2)c1`, the IC50 was determined as 350 nM. As to `O=C(/C=C/c1ccc(Cl)c(Cl)c1)NCCCCCN1CCC(C(=O)Nc2ccc3c(c2)OCO3)CC1`, the IC50 came out at 840 nM. With `CC(C)CNCc1ccc(-c2cccc(CN(C(=O)NC3CCCCC3)C3CCN(Cc4ccccc4)CC3)c2)cc1`, the IC50 is 800 nM. On to `O=C1C2=C(Nc3ccccc3SC2c2ccccc2)c2ccccc21` (centres undefined), for which the IC50 was determined as 330 nM. On to `COc1csc2cc(Br)ccc12`, for which the IC50 was found to be 860 nM. `N#Cc1ccc(NC(=O)N2CCCN(CCCCCNC(=O)/C=C/c3ccc(Cl)c(Cl)c3)CC2)cc1`: the IC50 came to 770 nM.

`Cc1ccc2nc(Nc3ccc(Nc4nc5ccc(C)cc5[nH]4)c(C)c3)[nH]c2c1` yielded an IC50 of 770 nM. As to `O=c1[nH]c(Cc2ccccc2)nc2ccc(Cl)cc12`, the IC50 was found to be 880 nM.

Take `O=C(Nc1cccc(C(F)(F)F)c1)NC1CCN(c2ccnc3ccccc23)CC1`: the half-inhibitory concentration (IC50) was found to be 990 nM. The compound `COc1ccc(CN2CCC2=O)c(OC)c1` registered an IC50 of 120 nM. With `Cc1cccc2[nH]c(-c3ccc(-c4cccc(CNCC5CCCO5)c4)s3)nc12` (centres undefined), the IC50 was determined as 970 nM. Then `NC(N)=NN=CC(=O)Nc1ccc(Cl)cc1`, with 810 nM. The compound `CN(C)c1ccc(N=C2N=C(Nc3ccc(N(C)C)cc3)c3ccccc32)cc1` had an IC50 of 850 nM. In turn, `CCCCc1ccc(-c2nc(NC(=O)Nc3nc(-c4ccccc4)[nH]c3C(=O)OCC)c(C(=O)OCC)[nH]2)cc1` yielded an IC50 of 750 nM. For `O=C(CC(=O)Nc1cc(Cl)cc(Cl)c1)Nc1cc(Cl)cc(Cl)c1`, the concentration for half-maximal inhibition (IC50) worked out at 160 nM. For `COc1cc(NCCCNCc2cn(S(=O)(=O)c3ccccc3)c3ccccc23)nc2ccccc12` the value was 390 nM. For the compound `COc1ccc(CNc2nccc3ccc(-c4ccc(N)nc4)cc23)cc1`, the IC50 stood at 980 nM.

The compound `CN(C)c1nc(NCc2ccccc2)nc(NN=Cc2cc([N+](=O)[O-])ccc2O)n1` yielded an IC50 of 690 nM.

The compound `CCCCCC(NCCCC)c1ccc(OCCOc2ccc(C(CCCCC)NCCCC)cc2)cc1` (centres undefined) displayed an IC50 of 1240 nM. Regarding `FC(F)(F)c1cccc(Nc2nc(-c3ccccc3)nc3ncccc23)c1`, the IC50 amounted to 800 nM.

The record behind these values is PubChem BioAssay AID2305 (GlaxoSmithKline (GSK), 2010).
